Assay results taken from patent US20050031670A1, “Weight reduction or weight controlling composition” (priority 2001, published 2005).
Counter-ions that a name gives are not always drawn.

What was measured:
Obese patients (BMI≧30) [1] = assay: Weight loss in obese patients given bupropion without food component or dietary intervention (Example 2, comparative); type: in vivo, human; details: 300 mg bupropion (150 mg twice a day), no food component nor dietary counseling
Procedure: Example 2 (Comparative): An analysis was conducted of obese patients (BMI≧30) who were given 300 mg of bupropion (150 mg twice a day) in the absence of the food component of the invention nor any other dietary counseling or intervention. Weight loss was negligible, the average weight loss per patient in the 300 mg study was 2.4 Kg after 12 months.

Obese patients (BMI≧30) [2] = assay: Weight loss in obese patients given bupropion plus low calorie nutritional beverage (Example 3, invention); type: in vivo, human; details: 600 Kcal deficit diet, end of 6 months
Procedure: Example 3 (Invention): Obese patients (BMI≧30) were given 300 mg (N=110) or 400 mg (N=105) of bupropion and a low calorie, nutritional beverage (Slim Fast™, 11.5 oz.) for two meals per day for 6 months to achieve a 600 Kcal deficit diet. That is, each patient was given 150 or 200 mg of bupropion HCL sustained release, respectively, in a nutritional beverage (a food component of the invention) twice a day. At the end of the end of 6 months, the average weight loss was 7.2 kg and 10.1 kg for the 300 mg and 400 mg groups, respectively.

Structure (SMILES)	Weight loss (in words) (Obese patients (BMI≧30) [1])	average weight loss per patient (Obese patients (BMI≧30) [1]; after 12 months) [kg]	average weight loss (Obese patients (BMI≧30) [2]; 300 mg group (150 mg twice a day) in Slim Fast 11.5 oz for two meals per day) [kg]	average weight loss (Obese patients (BMI≧30) [2]; 400 mg group (200 mg twice a day) in Slim Fast 11.5 oz for two meals per day) [kg]
CC(NC(C)(C)C)C(=O)c1cccc(Cl)c1 (racemic) [bupropion, (±)-1-(3-chlorophenyl)-2-[(1,1-dimethyl)amino]-1-propanone hydrochloride]	negligible	2.4	–	–
CC(NC(C)(C)C)C(=O)c1cccc(Cl)c1 (single isomer, unassigned; (+)) [bupropion HCL sustained release, (+)-2-(tert-butylamino)-3′-chloropropiophenome hydrochloride]	–	–	7.2	10.1
